PMC11678425, “(-)-Syringaresinol Exerts an Antidepressant-like Activity in Mice by Noncompetitive Inhibition of the Serotonin Transporter” (Pharmaceuticals, 2024)

Columns and labels:
SERT Y107C/C109A = experiment: Cysteine accessibility, extracellular pathway: MTSET reactivity with Y107C/C109A; assay type: cell-based; conditions: 10 μM ligand, compared with the control (MTSET alone)
SERT S277C/X5C = experiment: Cysteine accessibility, cytoplasmic pathway: MTSEA reactivity with S277C/X5C; assay type: cell-based; conditions: 10 μM ligand, digitonin-permeabilized cells, compared with the control
SERT = conditions: cited from earlier work
hSERT F556A = molecular target: T1, hSERT F556A (Homo sapiens, UniProt P31645, F556A); experiment: APP^+ uptake, hSERT F556A; assay type: cell-based; conditions: S2 site mutant
T1 construct: forward and reverse primers were used to amplify a full-length hSERT; expressed in transfected cells; host or cells: HeLa cells, transient, pcDNA3.1

hSERT R564A = molecular target: T2, hSERT R564A (Homo sapiens, UniProt P31645, R564A); experiment: APP^+ uptake, hSERT R564A; assay type: cell-based; conditions: S2 site mutant
T2 construct: forward and reverse primers were used to amplify a full-length hSERT; expressed in transfected cells; host or cells: HeLa

hSERT S559A = molecular target: T3, hSERT S559A (Homo sapiens, UniProt P31645, S559A); experiment: APP^+ uptake, hSERT S559A; assay type: cell-based; conditions: S2 site mutant
T3 construct: forward and reverse primers were used to amplify a full-length hSERT; expressed in transfected cells; host or cells: HeLa cells, transient, pcDNA3.1

hSERT E493N = molecular target: T4, hSERT E493N (Homo sapiens, UniProt P31645, E493N); experiment: APP^+ uptake, hSERT E493N; assay type: cell-based; conditions: S2 site mutant
T4 construct: forward and reverse primers were used to amplify a full-length hSERT; expressed in transfected cells; host or cells: HeLa cells, transient, pcDNA3.1

hSERT WT = molecular target: T5, hSERT WT (Homo sapiens, UniProt P31645); experiment: APP^+ uptake, hSERT WT; assay type: cell-based; conditions: WT
T5 construct: forward and reverse primers were used to amplify a full-length hSERT; expressed in transfected cells; host or cells: HeLa cells (CCL-2), transient, pcDNA3.1

hSERT L563A = molecular target: T6, hSERT L563A (Homo sapiens, UniProt P31645, L563A); experiment: APP^+ uptake, hSERT L563A; assay type: cell-based; conditions: S2 site mutant
T6 construct: forward and reverse primers were used to amplify a full-length hSERT; expressed in transfected cells; host or cells: HeLa

hSERT Q562N = molecular target: T7, hSERT Q562N (Homo sapiens, UniProt P31645, Q562N); experiment: APP^+ uptake, hSERT Q562N; assay type: cell-based; conditions: S2 site mutant
T7 construct: forward and reverse primers were used to amplify a full-length hSERT; expressed in transfected cells; host or cells: HeLa

hSERT P560G = molecular target: T8, hSERT P560G (Homo sapiens, UniProt P31645, P560G); experiment: APP^+ uptake, hSERT P560G; assay type: cell-based; conditions: S2 site mutant
T8 construct: forward and reverse primers were used to amplify a full-length hSERT; expressed in transfected cells; host or cells: HeLa cells, transient, pcDNA3.1

hSERT P561G = molecular target: T9, hSERT P561G (Homo sapiens, UniProt P31645, P561G); experiment: APP^+ uptake, hSERT P561G; assay type: cell-based; conditions: S2 site mutant
T9 construct: forward and reverse primers were used to amplify a full-length hSERT; expressed in transfected cells; host or cells: HeLa

hSERT P499G = molecular target: T10, hSERT P499G (Homo sapiens, UniProt P31645, P499G); experiment: APP^+ uptake, hSERT P499G; assay type: cell-based; conditions: S2 site mutant
T10 construct: forward and reverse primers were used to amplify a full-length hSERT; expressed in transfected cells; host or cells: HeLa cells, transient, pcDNA3.1

hSERT L565A = molecular target: T11, hSERT L565A (Homo sapiens, UniProt P31645, L565A); experiment: APP^+ uptake, hSERT L565A; assay type: cell-based; conditions: S2 site mutant
T11 construct: forward and reverse primers were used to amplify a full-length hSERT; expressed in transfected cells; host or cells: HeLa

hSERT T497A = molecular target: T12, hSERT T497A (Homo sapiens, UniProt P31645, T497A); experiment: APP^+ uptake, hSERT T497A; assay type: cell-based; conditions: S2 site mutant
T12 construct: forward and reverse primers were used to amplify a full-length hSERT; expressed in transfected cells; host or cells: HeLa cells, transient, pcDNA3.1

hSERT T583A = molecular target: T13, hSERT T583A (Homo sapiens, UniProt P31645, T583A); experiment: APP^+ uptake, hSERT T583A; assay type: cell-based; conditions: S2 site mutant
T13 construct: forward and reverse primers were used to amplify a full-length hSERT; expressed in transfected cells; host or cells: HeLa

hSERT I327A = molecular target: T14, hSERT I327A (Homo sapiens, UniProt P31645, I327A); experiment: APP^+ uptake, hSERT I327A; assay type: cell-based; conditions: S2 site mutant
T14 construct: forward and reverse primers were used to amplify a full-length hSERT; expressed in transfected cells; host or cells: HeLa cells, transient, pcDNA3.1

hSERT E494Q = molecular target: T15, hSERT E494Q (Homo sapiens, UniProt P31645, E494Q); experiment: APP^+ uptake, hSERT E494Q; assay type: cell-based; conditions: S2 site mutant
T15 construct: forward and reverse primers were used to amplify a full-length hSERT; expressed in transfected cells; host or cells: HeLa cells, transient, pcDNA3.1

hSERT G498T = molecular target: T16, hSERT G498T (Homo sapiens, UniProt P31645, G498T); experiment: APP^+ uptake, hSERT G498T; assay type: cell-based; conditions: S2 site mutant
T16 construct: forward and reverse primers were used to amplify a full-length hSERT; expressed in transfected cells; host or cells: HeLa cells, transient, pcDNA3.1

hSERT Y579A = molecular target: T17, hSERT Y579A (Homo sapiens, UniProt P31645, Y579A); experiment: APP^+ uptake, hSERT Y579A; assay type: cell-based; conditions: S2 site mutant
T17 construct: forward and reverse primers were used to amplify a full-length hSERT; expressed in transfected cells; host or cells: HeLa

hSERT Q111N = molecular target: T18, hSERT Q111N (Homo sapiens, UniProt P31645, Q111N); experiment: APP^+ uptake, hSERT Q111N; assay type: cell-based; conditions: S2 site mutant
T18 construct: forward and reverse primers were used to amplify a full-length hSERT; expressed in transfected cells; host or cells: HeLa cells, transient, pcDNA3.1

hSERT D328A = molecular target: T19, hSERT D328A (Homo sapiens, UniProt P31645, D328A); experiment: APP^+ uptake, hSERT D328A; assay type: cell-based; conditions: S2 site mutant
T19 construct: forward and reverse primers were used to amplify a full-length hSERT; expressed in transfected cells; host or cells: HeLa cells, transient, pcDNA3.1

In the case of `NCCc1c[nH]c2ccc(O)cc12` [5-HT, 5-hydroxytryptamine, reference compound], the “rate constant of MTSET reactivity with Y107C/C109A” value (SERT Y107C/C109A) is reported as “decreased” and the “rate constant of MTSEA reactivity with S277C/X5C” value (SERT S277C/X5C) is reported as “increased”.
For `COc1cc(C2OCC3C(c4cc(OC)c(O[C@@H]5O[C@H](CO)[C@@H](O)[C@H](O)[C@H]5O)c(OC)c4)OCC23)cc(OC)c1O[C@@H]1O[C@H](CO)[C@@H](O)[C@H](O)[C@H]1O` (single isomer, unassigned; (-)) [SBG, (-)-syringaresinol-4,4′-bis-O-β-D-glucopyranoside], the “inhibitory potency against SERT” value (SERT) is given as “a few micromolar range” and the “mode of inhibition of SERT activity” value (SERT) is given as “noncompetitively inhibit”.
For `CN(C)c1ccc(-c2cc[n+](C)cc2)cc1` [APP^+, 4-(4-(dimethylamino)phenyl)-1-methylpyridinium], the Vmax (hSERT F556A; APP^+ transport) was 26.84 ± 1.74 AFU/min, the Km (hSERT F556A) was 4.69 ± 1.02 µM and the Vmax (hSERT R564A; APP^+ transport) was 27.10 ± 0.08 AFU/min. The Km (hSERT R564A) was 3.41 ± 0.12 µM, the Vmax (hSERT S559A; APP^+ transport) was 23.68 ± 0.57 AFU/min and the Km (hSERT S559A) was 3.82 ± 0.55 µM. For the same compound, the Vmax (hSERT E493N; APP^+ transport) was 25.48 ± 0.96 AFU/min, the Km (hSERT E493N) was 4.83 ± 0.19 µM and the Vmax (hSERT WT; APP^+ transport) was 22.98 ± 0.92 AFU/min. For the same compound, the Km (hSERT WT) was 2.24 ± 0.45 µM, the Vmax (hSERT L563A; APP^+ transport) was 23.53 ± 0.45 AFU/min and the Km (hSERT L563A) was 1.53 ± 0.07 µM. It also gave a Vmax (hSERT Q562N; APP^+ transport) of 23.57 ± 1.49 AFU/min, a Km (hSERT Q562N) of 1.85 ± 0.36 µM and a Vmax (hSERT P560G; APP^+ transport) of 21.70 ± 0.90 AFU/min. It also gave a Km (hSERT P560G) of 1.85 ± 0.16 µM, a Vmax (hSERT P561G; APP^+ transport) of 26.55 ± 1.08 AFU/min and a Km (hSERT P561G) of 2.73 ± 0.09 µM. The Vmax (hSERT P499G; APP^+ transport) was 27.28 ± 0.43 AFU/min, the Km (hSERT P499G) was 3.72 ± 0.45 µM and the Vmax (hSERT L565A; APP^+ transport) was 21.13 ± 0.16 AFU/min. It also gave a Km (hSERT L565A) of 0.68 ± 0.04 µM, a Vmax (hSERT T497A; APP^+ transport) of 26.63 ± 1.09 AFU/min and a Km (hSERT T497A) of 3.85 ± 0.06 µM. For the same compound, the Vmax (hSERT T583A; APP^+ transport) was 26.97 ± 0.26 AFU/min, the Km (hSERT T583A) was 3.68 ± 0.15 µM and the Vmax (hSERT I327A; APP^+ transport) was 26.54 ± 1.43 AFU/min. The Km (hSERT I327A) was 4.27 ± 0.79 µM, the Vmax (hSERT E494Q; APP^+ transport) was 31.12 ± 0.89 AFU/min and the Km (hSERT E494Q) was 6.83 ± 0.86 µM. It also gave a Vmax (hSERT G498T; APP^+ transport) of 26.30 ± 1.52 AFU/min, a Km (hSERT G498T) of 3.75 ± 0.32 µM and a Vmax (hSERT Y579A; APP^+ transport) of 23.89 ± 2.33 AFU/min. For the same compound, the Km (hSERT Y579A) was 2.81 ± 0.08 µM, the Vmax (hSERT Q111N; APP^+ transport) was 26.93 ± 1.35 AFU/min and the Km (hSERT Q111N) was 3.69 ± 0.36 µM. For the same compound, the Vmax (hSERT D328A; APP^+ transport) was 27.83 ± 0.85 AFU/min and the Km (hSERT D328A) was 3.81 ± 0.27 µM.
For `COc1cc(C2OCC3C(c4cc(OC)c(OC5OC(CO)C(O)C(O)C5OC5OCC(O)(CO)C5O)c(OC)c4)OCC23)cc(OC)c1O` (single isomer, unassigned; (-)) [SAG, (-)-syringaresinol-4-O-D-apiofuranosyl-(1→2)-D-glucopyranoside], the “inhibitory potency against SERT” value (SERT) is given as “a few micromolar range” and the “mode of inhibition of SERT activity” value (SERT) is given as “noncompetitively inhibit”.
